For orientation: IC50 means the midpoint of a concentration-inhibition curve.

For one assay, the target named is T1, recombinant human HDAC2 (Homo sapiens, UniProt Q92769).
T1 construct: purchased BPS Bioscience
Nature of the assay: Fluorogenic HDAC inhibition assay, HDAC2 (Boc-L-Lys(Ac)-AMC substrate). In kind it is biochemical. The note with it: for IC50: maximum preincubation time 24 h. The method, then: (§1) 10 μL of the enzyme stock was added to 30 μL of the probes and preincubated for different preincubation times.

For assay [1], the target named is recombinant His-tagged HDAC2 (Homo sapiens, UniProt Q92769). Nature of the assay: Photoaffinity labeling (photocrosslinking) of HDAC2 with TSA competition, biotin tag, streptavidin-HRP western blot. It is filed as binding. The note with it: probe 25 μM, HDAC2 1.25 μM, Trichostatin A 125 μM (5-fold molar excess), 24 h, 254 nm UV. On the technique in general: In western blotting, separated proteins are transferred to a membrane and probed.
Method: Photoaffinity labeling studies were conducted with the probes using commercially available recombinant His-tagged HDAC2. […] The loading was confirmed by using nickel-HRP, which recognized the His-tag of the recombinant HDAC2 protein.
500 μM of DBCO-PEG4-biotin conjugate (Click Chemistry tools) in photolabeling buffer was added to initiate the [3+2] cycloaddition reaction with HDAC2-probe adduct. The cycloaddition reaction was carried out for 3 h at room temperature. Western blotting was done with 1.5 ug of purified protein with 5× loading buffer containing 10% SDS, 0.05% bromophenol blue, 50% glycerol, and β-mercaptoethanol. […] After electrophoresis, protein was transferred to a polyvinylidiene difluoride membrane (Iblot-Invitrogen). The membrane was incubated for 12 h with 5% albumin fraction V (Sigma-aldrich) in 1× Tris based saline supplemented with 0.1% Tween-20 (TBS-T). The membrane was washed three times with TBST and then incubated with Ni-HRP (1:2000) in TBST for 1 h under room temperature with slight agitation. After three washes in TBS-T, the chemilumiscent signal was detected using the enhanced chemiluminescence (ECL) kit from Pierce (Pierce Biotechnology, Rockford, Ill.). […] After three washes in PBST and water, the chemilumiscent signal was detected using the enhanced chemiluminescence (ECL) kit from Pierce (Pierce Biotechnology, Rockford, Ill.).

Assay [2] has as its target T2, purified recombinant human HDAC8 from E. coli (Homo sapiens, UniProt Q9BY41).
T2 construct: made in house; host or cells: E. coli
T2 sequence (Q9BY41 1-377): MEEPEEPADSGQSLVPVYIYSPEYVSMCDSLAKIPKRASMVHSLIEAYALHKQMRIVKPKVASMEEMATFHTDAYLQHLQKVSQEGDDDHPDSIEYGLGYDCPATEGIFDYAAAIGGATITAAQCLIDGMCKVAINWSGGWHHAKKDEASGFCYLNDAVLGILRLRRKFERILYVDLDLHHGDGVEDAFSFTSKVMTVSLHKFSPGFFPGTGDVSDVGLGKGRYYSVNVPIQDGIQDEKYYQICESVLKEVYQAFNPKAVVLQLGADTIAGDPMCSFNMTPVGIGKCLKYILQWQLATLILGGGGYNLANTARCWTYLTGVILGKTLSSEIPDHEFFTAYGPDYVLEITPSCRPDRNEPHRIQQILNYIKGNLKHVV
The assay is described as follows: Fluorogenic HDAC inhibition assay, HDAC8 (Fluor de Lys substrate). It is filed as biochemical. The note with it: 10 μM inhibitor, preincubation 3 h. Here is the method:
as §1

T1 sequence (Q92769 whole entry): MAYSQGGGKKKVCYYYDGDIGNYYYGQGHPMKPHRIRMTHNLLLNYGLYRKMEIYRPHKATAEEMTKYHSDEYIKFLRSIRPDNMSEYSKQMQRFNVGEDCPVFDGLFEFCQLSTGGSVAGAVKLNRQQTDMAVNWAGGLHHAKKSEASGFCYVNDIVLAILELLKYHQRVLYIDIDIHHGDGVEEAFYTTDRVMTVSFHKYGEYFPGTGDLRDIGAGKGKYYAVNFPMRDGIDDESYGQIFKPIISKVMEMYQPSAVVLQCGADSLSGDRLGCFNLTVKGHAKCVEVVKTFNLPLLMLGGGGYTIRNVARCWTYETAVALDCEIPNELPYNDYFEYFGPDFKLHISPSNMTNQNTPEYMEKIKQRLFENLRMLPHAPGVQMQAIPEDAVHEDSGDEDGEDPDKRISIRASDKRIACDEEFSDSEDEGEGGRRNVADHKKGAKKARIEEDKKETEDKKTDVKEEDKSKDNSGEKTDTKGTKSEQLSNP
Chain of recombinant His-tagged HDAC2 (Q92769 whole entry): as above

Regarding `[N-]=[N+]=NCCOc1ccc(C(=O)Nc2cc(-c3ccccc3)ccc2N)cc1N=[N+]=[N-]` [probe 1e, N-(4-amino-[1,1′-biphenyl]-3-yl)-3-azido-4-(2-azidoethoxy)benzamide], the IC50 on recombinant human HDAC2 worked out at 0.83 µM. Also, on recombinant human HDAC2 (preincubation 24 h vs 5 min), the “increase in inhibition of HDAC2 upon preincubation (IC50 ratio)” value is on record as 41 fold. On to `[N-]=[N+]=NCCOc1ccc(C(=O)Nc2cc(-c3cccs3)ccc2N)cc1N=[N+]=[N-]` [probe 1f, N-(2-amino-5-(thiophen-2-yl)phenyl)-3-azido-4-(2-azidoethoxy)benzamide], for which the IC50 on recombinant human HDAC2 is 0.75 µM. Regarding `[N-]=[N+]=NCCC(=O)Nc1ccc(C(=O)Nc2cc(N=[N+]=[N-])ccc2N)cc1` [probe 1g, N-(2-amino-5-azidophenyl)-4-(3-azidopropanamido)benzamide], the “decrease in biotinylation of HDAC2 in the presence of competing ligand” value in assay [1] is “slightly less pronounced”.

On to `[N-]=[N+]=Nc1cccc(COC(=O)NCc2ccc(C(=O)Nc3cc(-c4ccccc4)ccc3N)cc2)c1` [probe 2a, 3-azidobenzyl 4-((4-amino-[1,1′-biphenyl]-3-yl)carbamoyl)benzylcarbamate], for which the results for the “inhibition of HDAC8” value in assay [2] and in assay [2] (10 µM) were “inactive” and “did not inhibit”, respectively.

The values above are taken from US9108943B2, “Photoreactive benzamide probes for histone deacetylase 2” (THE BOARD OF TRUSTEES OF THE UNIVERSITY OF ILLINOIS, priority 2013, dated 2015).
